In one data set the target is HDAC1 (Homo sapiens (Human), UniProt Q13547). As to the kind of experiment: HDAC1 enzymatic assay. The format is biochemical. The method in brief: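 Compound inhibition of human HDAC1 (0.5 ng enzyme, 10 uM substrate) was assessed by fluorescence after developer treatment, excitation 360 nm and emission 460 nm. Percent activity was normalized to no-compound (100%) and no-enzyme (0%) controls, plotted against concentration, and fitted to a sigmoidal dose-response curve in Graphpad Prism to obtain IC50 at half-maximal activity.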
Chain of HDAC1 (Q13547 whole entry): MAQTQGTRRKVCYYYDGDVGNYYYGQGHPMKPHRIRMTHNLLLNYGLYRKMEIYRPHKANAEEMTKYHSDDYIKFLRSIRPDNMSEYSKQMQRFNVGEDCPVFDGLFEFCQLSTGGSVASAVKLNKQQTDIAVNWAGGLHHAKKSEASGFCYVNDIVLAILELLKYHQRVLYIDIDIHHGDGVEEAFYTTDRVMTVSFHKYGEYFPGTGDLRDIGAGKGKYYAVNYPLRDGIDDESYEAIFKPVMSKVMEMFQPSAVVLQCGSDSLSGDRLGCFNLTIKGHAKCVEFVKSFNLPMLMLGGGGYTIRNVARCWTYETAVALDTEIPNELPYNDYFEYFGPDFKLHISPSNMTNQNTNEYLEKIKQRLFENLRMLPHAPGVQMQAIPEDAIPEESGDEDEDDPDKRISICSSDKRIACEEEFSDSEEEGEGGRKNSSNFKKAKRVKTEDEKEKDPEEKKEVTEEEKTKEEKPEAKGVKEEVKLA

The target in a further data set is HDAC2 (Homo sapiens (Human), UniProt Q92769). In words: HDAC2 enzymatic assay. To be noted: selectivity profile; read-out: HDAC Enzyme IC50, HDAC 2. The format is biochemical. The protocol:
(§1) All enzymatic reactions were conducted in duplicate at room temperature for 17 hours in a 50 μl mixture containing HDAC assay buffer (50 mM Tris-HCl, pH 7.4, 137 mM NaCl, 2.7 mM KCl, 0.05% Tween 20, 5 μg BSA), an HDAC substrate, an HDAC enzyme, and a test compound. Compound dilution was prepared ten-fold higher than the final concentration of the compounds with 10% DMSO in HDAC assay buffer and 5 μl of the dilution was added to a 50 μl reaction so that the final concentration of DMSO is 1% in all of reactions. After enzymatic reactions, 50 μl of HDAC Developer was added to each well and the plate was incubated at room temperature for an additional 20 minutes. Fluorescence intensity was measured at an excitation of 360 nm and an emission of 460 nm using a Tecan Infinite M1000 or Biotek Synergy microplate reader.
(§2) The fluorescent intensity data were analyzed using the computer software, Graphpad Prism. In the absence of the compound, the fluorescent intensity (Ft) in each data set was defined as 100% activity. In the absence of HDAC, the fluorescent intensity (Fb) in each data set was defined as 0% activity. The percent activity in the presence of each compound was calculated according to the following equation: % activity=(F−Fb)/(Ft−Fb), where F=the fluorescent intensity in the presence of the compound.
(§3) The values of % activity versus a series of compound concentrations were then plotted using non-linear regression analysis of Sigmoidal dose-response curve generated with the equation Y=B+(T−B)/1+10((Log EC50−X)×Hill Slope), where Y=percent activity, B=minimum percent activity, T=maximum percent activity, X=logarithm of compound and Hill Slope=slope factor or Hill coefficient. The IC50 value was determined by the concentration causing a half-maximal percent activity.
(§4) HDAC1 enzymatic assays contained 0.5 ng HDAC1 and 10 uM of HDAC substrate. HDAC2 enzymatic assays contained 0.5 ng HDAC2 and 10 uM of HDAC substrate. HDAC3 enzymatic assays contained 0.4 ng HDAC3/NCOR2 and 10 uM of HDAC substrate. HDAC4 enzymatic assays contained 0.02 ng HDAC4 and 2 uM of HDAC substrate. HDAC5 enzymatic assays contained 0.5 ng HDAC5 and 2 uM of HDAC substrate. HDAC6 enzymatic assays contained 2 ng HDAC6 and 10 uM of HDAC substrate. HDAC7 enzymatic assays contained 0.05 ng HDAC7 and 2 uM of HDAC substrate. HDAC8 enzymatic assays contained 5 ng HDAC8 and 2 uM of HDAC substrate. HDAC9 enzymatic assays contained 1 ng HDAC9 and 2 uM of HDAC substrate. HDAC10 enzymatic assays contained 75 ng HDAC10 and 10 uM of HDAC substrate. HDAC11 enzymatic assays contained 5 ng HDAC11 and 2 uM of HDAC substrate.

A further data set addresses HDAC3/NCOR2 (Homo sapiens (Human), UniProt O15379). As to the kind of experiment: HDAC3 enzymatic assay. Type of data set: biochemical. To be noted: selectivity profile; read-out: HDAC Enzyme IC50, HDAC 3. The procedure:
as §1, §2, §3, §4

In the next data set the target is HDAC4 (Homo sapiens (Human), UniProt P56524). In words: HDAC4 enzymatic assay. The format is biochemical. Conditions: selectivity profile; read-out: HDAC Enzyme IC50, HDAC 4. The protocol:
as §1, §2, §3, §4

Another data set concerns the target HDAC5 (Homo sapiens (Human), UniProt Q9UQL6). As to the kind of experiment: HDAC5 enzymatic assay. Type of data set: biochemical. Conditions: selectivity profile; read-out: HDAC Enzyme IC50, HDAC 5. The procedure: as §1, §2, §3, §4
The target in a further data set is HDAC6 (Homo sapiens (Human), UniProt Q9UBN7). As to the kind of experiment: HDAC6 enzymatic assay. The format is biochemical. The method in brief: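 Following a 17 hour room-temperature incubation of 2 ng HDAC6 with 10 uM substrate and compound, 50 μl developer was added for another 20 minutes, and fluorescence (excitation 360 nm, emission 460 nm) was recorded. Activity was normalized to no-compound (100%) and no-enzyme (0%) wells, and IC50 came from sigmoidal dose-response fitting in Graphpad Prism.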
Chain of HDAC6 (Q9UBN7 whole entry): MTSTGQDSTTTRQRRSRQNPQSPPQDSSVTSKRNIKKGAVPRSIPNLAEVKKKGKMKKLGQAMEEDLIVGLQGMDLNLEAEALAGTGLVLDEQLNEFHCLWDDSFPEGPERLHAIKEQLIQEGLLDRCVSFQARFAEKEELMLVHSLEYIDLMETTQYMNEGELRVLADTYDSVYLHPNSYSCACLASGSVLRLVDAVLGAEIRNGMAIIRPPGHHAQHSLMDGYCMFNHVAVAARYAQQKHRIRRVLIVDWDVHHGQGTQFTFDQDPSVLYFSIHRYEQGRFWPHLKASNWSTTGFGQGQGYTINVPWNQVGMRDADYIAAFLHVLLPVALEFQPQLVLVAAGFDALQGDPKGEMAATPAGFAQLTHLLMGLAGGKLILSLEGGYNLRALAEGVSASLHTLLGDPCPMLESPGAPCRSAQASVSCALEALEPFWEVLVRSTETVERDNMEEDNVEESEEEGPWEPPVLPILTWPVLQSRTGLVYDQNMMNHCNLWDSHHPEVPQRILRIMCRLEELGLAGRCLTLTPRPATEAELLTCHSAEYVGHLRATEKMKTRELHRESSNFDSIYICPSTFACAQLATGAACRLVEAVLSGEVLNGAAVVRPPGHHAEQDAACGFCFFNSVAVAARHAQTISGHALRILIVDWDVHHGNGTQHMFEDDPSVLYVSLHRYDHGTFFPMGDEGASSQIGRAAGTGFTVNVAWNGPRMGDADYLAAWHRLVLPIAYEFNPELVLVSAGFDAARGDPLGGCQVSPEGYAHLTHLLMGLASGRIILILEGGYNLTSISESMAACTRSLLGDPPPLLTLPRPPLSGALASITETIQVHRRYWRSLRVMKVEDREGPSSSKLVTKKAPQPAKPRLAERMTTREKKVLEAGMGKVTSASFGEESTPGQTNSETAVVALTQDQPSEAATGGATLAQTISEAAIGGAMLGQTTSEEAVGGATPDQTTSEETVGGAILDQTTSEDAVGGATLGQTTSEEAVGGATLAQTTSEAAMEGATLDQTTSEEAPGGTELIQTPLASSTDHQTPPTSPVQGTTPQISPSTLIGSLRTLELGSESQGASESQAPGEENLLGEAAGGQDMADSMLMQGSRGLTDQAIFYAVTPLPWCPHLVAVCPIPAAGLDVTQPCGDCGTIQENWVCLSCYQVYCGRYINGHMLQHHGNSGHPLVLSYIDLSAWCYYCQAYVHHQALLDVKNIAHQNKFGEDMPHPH

In another data set the target is HDAC7 (Homo sapiens (Human), UniProt Q8WUI4). As to the kind of experiment: HDAC7 enzymatic assay. The format is biochemical. To be noted: selectivity profile; read-out: HDAC Enzyme IC50, HDAC 7. The protocol: as §1, §2, §3, §4
Another data set addresses HDAC8 (Homo sapiens (Human), UniProt Q9BY41). As to the kind of experiment: HDAC8 enzymatic assay. The format is biochemical. Conditions: selectivity profile; read-out: HDAC Enzyme IC50, HDAC 8. The protocol:
as §1, §2, §3, §4

Another data set has as its target HDAC9 (Homo sapiens (Human), UniProt Q9UKV0). As to the kind of experiment: HDAC9 enzymatic assay. Type of data set: biochemical. To be noted: selectivity profile; read-out: HDAC Enzyme IC50, HDAC 9. The protocol: as §1, §2, §3, §4
In the next data set the target is HDAC10 (Homo sapiens (Human), UniProt Q969S8). In words: HDAC10 enzymatic assay. The format is biochemical. Conditions: selectivity profile; read-out: HDAC Enzyme IC50, HDAC 10. The protocol:
as §1, §2, §3, §4

In the next data set the target is HDAC11 (Homo sapiens (Human), UniProt Q96DB2). In words: HDAC11 enzymatic assay. Conditions: selectivity profile; read-out: HDAC Enzyme IC50, HDAC 11. Type of data set: biochemical. The procedure: as §1, §2, §3, §4
Chain of HDAC11 (Q96DB2 whole entry, species assumed): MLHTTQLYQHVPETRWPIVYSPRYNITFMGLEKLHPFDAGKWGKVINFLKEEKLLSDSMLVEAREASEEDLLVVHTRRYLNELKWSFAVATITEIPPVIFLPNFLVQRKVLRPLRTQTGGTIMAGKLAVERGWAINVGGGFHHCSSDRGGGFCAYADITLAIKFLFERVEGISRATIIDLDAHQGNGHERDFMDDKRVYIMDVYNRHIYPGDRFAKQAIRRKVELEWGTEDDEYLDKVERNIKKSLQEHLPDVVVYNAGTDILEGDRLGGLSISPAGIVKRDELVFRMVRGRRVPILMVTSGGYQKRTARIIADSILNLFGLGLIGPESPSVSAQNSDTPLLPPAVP
Data set [1] is described as follows: Mouse Pharmacokinetics, oral single dose. The format is in vivo, male Swiss Albino mice. Conditions: male, Swiss Albino, plasma, 5 mg/kg, formulation by footnote: a 20% CremEL in H20, b 1% CMC in water, c 2% DMSO, 0.2% Tween80, 97.8% of 1% CMC. The protocol: Example 187: Mouse Pharmacokinetics
A dose of 5 mg/kg in an appropriate formulation was administered by oral gavage to fasted male Swiss Albino mice (n=3), and the plasma was collected at 0, 0.25, 0.5, 1, 2, 4, 8, and 24 h. Plasma levels were measured by HPLC/MS/MS methods and the pharmacokinetic parameters were determined for individual animals from plasma concentration-time data using noncompartmental model 200-202 in Phoenix WinNonlin 6.3.

Setting [2] is: selectivity profile, read-out: HDAC Enzyme IC50, HDAC 1.
[3] abbreviates: selectivity profile, read-out: HDAC Enzyme IC50, HDAC 6.

Where two headings read alike, the source gives them in different places.

The source of these data is patent US10357493B2, “Metalloenzyme inhibitor compounds” (Selenity Therapeutics (Bermuda), Ltd., priority 2017, dated 2019).

Chain of HDAC3/NCOR2 (O15379 whole entry, looked up, species assumed): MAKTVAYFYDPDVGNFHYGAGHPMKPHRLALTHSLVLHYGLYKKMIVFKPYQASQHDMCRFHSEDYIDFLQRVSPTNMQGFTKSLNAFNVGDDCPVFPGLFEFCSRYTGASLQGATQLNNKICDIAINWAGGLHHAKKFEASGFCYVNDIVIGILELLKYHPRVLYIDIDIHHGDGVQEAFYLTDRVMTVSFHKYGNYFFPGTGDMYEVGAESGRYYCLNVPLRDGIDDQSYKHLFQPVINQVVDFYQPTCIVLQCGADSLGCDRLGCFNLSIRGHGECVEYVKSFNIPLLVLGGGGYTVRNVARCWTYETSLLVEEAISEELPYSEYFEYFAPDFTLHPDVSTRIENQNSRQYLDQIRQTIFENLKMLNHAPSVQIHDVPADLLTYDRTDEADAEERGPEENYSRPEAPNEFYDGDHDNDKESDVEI
Chain of HDAC3/NCOR2 (Q9Y618 whole entry partner, looked up, species assumed): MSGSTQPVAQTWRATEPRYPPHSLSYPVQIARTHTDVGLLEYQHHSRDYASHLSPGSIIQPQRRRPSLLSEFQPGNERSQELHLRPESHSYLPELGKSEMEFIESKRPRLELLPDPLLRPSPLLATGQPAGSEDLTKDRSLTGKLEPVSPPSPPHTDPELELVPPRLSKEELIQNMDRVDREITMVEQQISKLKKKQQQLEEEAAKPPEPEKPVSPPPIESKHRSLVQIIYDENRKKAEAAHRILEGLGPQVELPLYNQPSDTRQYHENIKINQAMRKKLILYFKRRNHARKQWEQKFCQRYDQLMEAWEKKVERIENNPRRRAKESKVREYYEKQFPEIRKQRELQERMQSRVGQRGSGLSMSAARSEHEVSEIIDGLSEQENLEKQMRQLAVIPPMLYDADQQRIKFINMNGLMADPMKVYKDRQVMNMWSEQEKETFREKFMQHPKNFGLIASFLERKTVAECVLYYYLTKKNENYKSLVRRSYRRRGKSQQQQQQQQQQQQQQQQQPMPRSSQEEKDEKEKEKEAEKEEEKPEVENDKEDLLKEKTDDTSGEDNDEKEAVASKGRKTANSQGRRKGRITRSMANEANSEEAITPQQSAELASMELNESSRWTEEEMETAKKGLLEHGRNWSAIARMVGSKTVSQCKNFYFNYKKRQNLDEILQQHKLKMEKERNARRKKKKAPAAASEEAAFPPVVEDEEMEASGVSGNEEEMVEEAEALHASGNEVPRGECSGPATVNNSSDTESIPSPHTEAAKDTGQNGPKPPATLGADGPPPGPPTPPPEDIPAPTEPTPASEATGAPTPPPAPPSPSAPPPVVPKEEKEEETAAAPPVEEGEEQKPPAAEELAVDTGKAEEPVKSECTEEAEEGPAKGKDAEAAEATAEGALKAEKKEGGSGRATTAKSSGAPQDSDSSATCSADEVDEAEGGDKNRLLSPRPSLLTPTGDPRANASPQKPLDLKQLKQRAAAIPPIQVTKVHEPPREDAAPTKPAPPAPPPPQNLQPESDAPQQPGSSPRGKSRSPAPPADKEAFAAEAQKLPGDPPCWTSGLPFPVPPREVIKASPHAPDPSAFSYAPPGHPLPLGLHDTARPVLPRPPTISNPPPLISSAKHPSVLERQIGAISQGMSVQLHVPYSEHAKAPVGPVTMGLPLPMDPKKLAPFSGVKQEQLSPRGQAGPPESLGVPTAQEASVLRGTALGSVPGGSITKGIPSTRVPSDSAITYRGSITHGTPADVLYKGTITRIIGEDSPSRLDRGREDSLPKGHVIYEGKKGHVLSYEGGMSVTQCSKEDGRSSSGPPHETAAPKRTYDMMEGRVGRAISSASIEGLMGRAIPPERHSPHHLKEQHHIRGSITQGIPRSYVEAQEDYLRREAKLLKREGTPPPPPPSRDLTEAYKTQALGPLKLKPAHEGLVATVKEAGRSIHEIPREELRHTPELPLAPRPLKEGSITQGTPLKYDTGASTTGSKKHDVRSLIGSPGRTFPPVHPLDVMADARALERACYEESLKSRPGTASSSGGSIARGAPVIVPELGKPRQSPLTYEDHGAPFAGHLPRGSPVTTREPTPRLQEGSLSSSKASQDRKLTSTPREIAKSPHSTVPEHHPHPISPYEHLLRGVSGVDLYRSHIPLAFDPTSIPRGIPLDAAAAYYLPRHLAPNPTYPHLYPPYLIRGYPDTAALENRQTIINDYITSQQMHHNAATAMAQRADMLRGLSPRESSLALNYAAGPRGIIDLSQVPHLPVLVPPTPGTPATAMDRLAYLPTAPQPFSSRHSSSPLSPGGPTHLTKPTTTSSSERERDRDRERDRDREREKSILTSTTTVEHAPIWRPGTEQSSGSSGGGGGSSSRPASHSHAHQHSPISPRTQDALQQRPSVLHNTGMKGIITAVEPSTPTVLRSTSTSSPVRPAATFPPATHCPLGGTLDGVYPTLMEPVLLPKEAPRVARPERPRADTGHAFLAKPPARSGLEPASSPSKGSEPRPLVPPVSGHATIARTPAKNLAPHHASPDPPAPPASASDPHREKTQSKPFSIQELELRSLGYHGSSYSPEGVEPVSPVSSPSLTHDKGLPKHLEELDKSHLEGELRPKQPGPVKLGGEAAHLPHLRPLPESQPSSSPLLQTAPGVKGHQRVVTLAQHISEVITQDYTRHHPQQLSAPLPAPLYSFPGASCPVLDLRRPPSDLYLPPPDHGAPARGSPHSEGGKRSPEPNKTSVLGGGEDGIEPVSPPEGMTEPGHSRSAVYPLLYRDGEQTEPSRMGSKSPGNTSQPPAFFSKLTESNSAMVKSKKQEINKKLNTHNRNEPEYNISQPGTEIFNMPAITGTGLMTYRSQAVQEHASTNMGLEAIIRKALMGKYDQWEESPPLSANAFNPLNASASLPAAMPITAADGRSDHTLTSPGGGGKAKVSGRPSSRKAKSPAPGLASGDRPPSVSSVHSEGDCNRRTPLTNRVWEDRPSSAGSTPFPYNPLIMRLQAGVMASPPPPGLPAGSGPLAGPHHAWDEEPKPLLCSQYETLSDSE

`CS(=O)(=O)NCC(Nc1ncc(-c2nnc(C(F)F)o2)cn1)c1ccc(OC(F)F)cc1` (single isomer, unassigned) [115(+), N-(2-(4-(difluoromethoxy)phenyl)-2-((5-(5-(difluoromethyl)-1,3,4-oxadiazol-2-yl)pyrimidin-2-yl)amino)ethyl)methanesulfonamide]: the IC50 (in general, the concentration that inhibits the measured activity by half) is above 30 µM at HDAC1 (read-out: Human HDAC1 IC50); above 30 µM on HDAC1 (setting [2]); above 30 µM on HDAC2; above 30 µM on HDAC3/NCOR2; 10.7 µM at HDAC4; above 30 µM on HDAC5. For the same compound, the IC50 was 0.018 µM on HDAC6 (read-out: Human HDAC6 IC50); 0.018 µM at HDAC6 (setting [3]); 11.9 µM at HDAC7; above 30 µM on HDAC8; above 30 µM on HDAC9; above 30 µM on HDAC10. In addition, on HDAC11, the IC50 was above 30 µM. In addition, in data set [1], the Cmax (in general, the maximum level reached in the sampled fluid or tissue) amounted to 656 ng/mL. Moreover, in data set [1], the half-life – broadly, the time in which the quantity being followed falls by half – is 4.3 h.
In the case of `CS(=O)(=O)NCC(Nc1ncc(-c2nnc(C(F)F)o2)cn1)c1ccc(F)cc1` (single isomer, unassigned) [38(+), N-(2-((5-(5-(difluoromethyl)-1,3,4-oxadiazol-2-yl)pyrimidin-2-yl)amino)-2-(4-fluorophenyl)ethyl) methanesulfonamide], the IC50 on HDAC1 (read-out: Human HDAC1 IC50), on HDAC1 (setting [2]), on HDAC2, at HDAC3/NCOR2, at HDAC4 and at HDAC5 was above 30 µM in each case. For the same compound, the IC50 on HDAC6 (read-out: Human HDAC6 IC50) was 0.015 µM; on HDAC6 (setting [3]), 0.015 µM; on HDAC7 it was 16.7 µM; at HDAC8, above 30 µM; at HDAC9, above 30 µM; on HDAC10 it was above 30 µM. Further, at HDAC11, the IC50 is above 30 µM. Besides, in [1], the Cmax is 1110 ng/mL. The half-life in data set [1] is 2.7 h.
Consider `CS(=O)(=O)NCC(Nc1ncc(-c2nnc(C(F)F)o2)cn1)c1ccc(OC(F)(F)F)cc1` (single isomer, unassigned) [122(+), N-(2-((5-(5-(difluoromethyl)-1,3,4-oxadiazol-2-yl)pyrimidin-2-yl)amino)-2-(4-(trifluoromethoxy)phenyl)ethyl)methanesulfonamide], for which the IC50 at HDAC1 (read-out: Human HDAC1 IC50) was above 30 µM; at HDAC1 (setting [2]), above 30 µM; on HDAC2 it was above 30 µM; at HDAC3/NCOR2, above 30 µM; on HDAC4, 8.4 µM; at HDAC5, above 30 µM. Further, the IC50 is 0.031 µM on HDAC6 (read-out: Human HDAC6 IC50); 0.031 µM on HDAC6 (setting [3]); 26.7 µM at HDAC7; above 30 µM on HDAC8; above 30 µM on HDAC9; above 30 µM at HDAC10. For the same compound, the IC50 at HDAC11 was above 30 µM. The compound further gave a Cmax in [1] of 2930 ng/mL. In data set [1], this compound showed a half-life of 18.4 h.
For `CS(=O)(=O)N(CC(Nc1ncc(-c2nnc(C(F)F)o2)cn1)c1ccc(F)cc1)CC(F)(F)F` (single isomer, unassigned) [118(+), N-(2-((5-(5-(difluoromethyl)-1,3,4-oxadiazol-2-yl)pyrimidin-2-yl)amino)-2-(4-fluorophenyl)ethyl)-N-(2,2,2-trifluoroethyl)methanesulfonamide], the IC50 at HDAC1 (read-out: Human HDAC1 IC50), on HDAC1 (setting [2]), on HDAC2, on HDAC3/NCOR2, at HDAC4 and on HDAC5 was above 30 µM in each case. For the same compound, the IC50 on HDAC6 (read-out: Human HDAC6 IC50) was 0.029 µM; at HDAC6 (setting [3]) it was 0.029 µM; at HDAC7 it was above 30 µM; on HDAC8 it was above 30 µM; on HDAC9, above 30 µM; at HDAC10, above 30 µM. For the same compound, the IC50 at HDAC11 is above 30 µM. This compound returned a Cmax in [1] of 697 ng/mL. Besides, in data set [1], the half-life was 23.2 h.
As to `Fc1ccc(C2(Nc3ncc(-c4nnc(C(F)F)o4)cn3)CC2)c(Cl)c1` [Example 62, N-(1-(2-chloro-4-fluorophenyl)cyclopropyl)-5-(5-(difluoromethyl)-1,3,4-oxadiazol-2-yl)pyrimidin-2-amine], the IC50 on HDAC1 (read-out: Human HDAC1 IC50), on HDAC1 (setting [2]), on HDAC2, at HDAC3/NCOR2, at HDAC4 and on HDAC5 was above 30 µM throughout. Also, the IC50 at HDAC6 (read-out: Human HDAC6 IC50) was 0.008 µM; at HDAC6 (setting [3]) it was 0.008 µM; at HDAC7, above 30 µM; on HDAC8, above 30 µM; on HDAC9 it was above 30 µM; at HDAC10, above 30 µM. Also, the IC50 on HDAC11 was above 30 µM.
Take `Fc1cccc(F)c1C1(Nc2ncc(-c3nnc(C(F)F)o3)cn2)CC1` [Example 11, 5-(5-(difluoromethyl)-1,3,4-oxadiazol-2-yl)-N-(1-(2,6-difluorophenyl)cyclopropyl)pyrimidin-2-amine]: the IC50 at HDAC1 (read-out: Human HDAC1 IC50) was above 100 µM; on HDAC1 (setting [2]) it was above 100 µM; at HDAC2, above 30 µM; on HDAC3/NCOR2, above 30 µM; on HDAC4, above 30 µM; on HDAC5 it was above 30 µM. For the same compound, the IC50 is 0.006 µM at HDAC6 (read-out: Human HDAC6 IC50); 0.006 µM at HDAC6 (setting [3]); above 30 µM at HDAC7; above 30 µM on HDAC8; above 30 µM on HDAC9; above 30 µM on HDAC10. On HDAC11, the IC50 was above 30 µM.
